Laboratory results taken from patent publication US5418160A, “Cloned cell line expressing rat β3A adrenergic receptor” (The United States as represented by the Secretary of the …, priority 1991, dated 1995).
Read-outs that look alike come from different tables or passages of the source. Values belong to the compound of their own block, whether it stands above or below them.

Legend:
[1] = tested on: brown adipocytes; conditions: Arch et al., read-out: EC50 for increases in lipolysis; cited from earlier work
[2] = molecular target: β3 -adrenergic receptor; conditions: read-out: KD reported for [125I]-ICYP binding to the β3-adrenergic receptor; Emorine et al.; cited from earlier work
[3] = molecular target: β1 -adrenergic receptors; conditions: read-out: KD for [125I]-ICYP binding to β1-adrenergic receptors; cited from earlier work
[4] = molecular target: β2 -adrenergic receptors; conditions: read-out: KD for [125I]-ICYP binding to β2-adrenergic receptors; cited from earlier work
[5] = molecular target: T1, fat cell β receptor (β3A -adrenergic receptor) (Rattus norvegicus, UniProt P26255); assay: Inhibition of BRL 37344-induced cAMP accumulation in transfected CHO cells; format: cell-based; conditions: read-out: inhibition of BRL 37344-induced cAMP accumulation
T1 construct: expressed in transfected cells
Description: Using a protocol for cotransfection of CHO cells (a 1.5 kb fragment was excised from pBluescript using Saci (present in the multiple cloning site of the vector) and BamHI and inserted into the Sac/BamH/sites of PSVL (Pharmacie). CHO-K1 cells were cotransfected with pSVL and pMSVneo (neomycin resistance plasmid) F. Z. Chung, C. D. Wang, P. C. Potter, J. C. Venter and C. M. Fraser, J. Biol. Chem. 263, 4052 (1988) using the CaPO4 precipitation technique. Stable transfectants were obtained by growth of the cells in culture medium containing Geneticin (500 μg/ml); colonies derived from single cells were isolated and expanded.

T1 sequence (P26255 whole entry): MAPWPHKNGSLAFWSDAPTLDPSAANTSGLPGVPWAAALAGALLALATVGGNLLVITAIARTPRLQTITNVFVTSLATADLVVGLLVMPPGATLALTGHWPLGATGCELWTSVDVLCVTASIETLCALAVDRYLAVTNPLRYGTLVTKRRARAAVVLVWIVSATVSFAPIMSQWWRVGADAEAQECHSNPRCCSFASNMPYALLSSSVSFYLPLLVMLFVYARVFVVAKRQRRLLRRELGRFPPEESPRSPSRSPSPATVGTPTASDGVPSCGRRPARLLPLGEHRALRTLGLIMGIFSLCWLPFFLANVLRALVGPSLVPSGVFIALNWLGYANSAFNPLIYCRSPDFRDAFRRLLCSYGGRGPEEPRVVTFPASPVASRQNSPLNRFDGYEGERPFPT

Compound: CC(Cc1ccc(OCC(=O)O)cc1)NCC(O)c1cccc(Cl)c1 (centres unmarked) [BRL 37344]
EC50 [1]: 1.7 nM

Compound: CC(C)(C)NCC(O)COc1cccc2[nH]c(C#N)c([125I])c12 (centres unmarked) [[^125 1]-ICYP, [^125 1]-iodocyanopindolol]
Kd [2]: 0.5 nM
Kd [3]: 0.011 nM
Kd [4]: 0.03 nM

inhibition at 100 µM ([5]; antagonist at 10^-4 M, transfected CHO cells): 52%
Compound: C=CCc1ccccc1OCC(O)CNC(C)C (centres unmarked) [alprenolol]

Compound: CC(C)NCC(O)COc1ccc(CC(N)=O)cc1 (centres unmarked) [atenolol]
inhibition at 100 µM ([5]; CHO): 30%

Compound: CC(C)NCC(O)c1ccc(O)c(O)c1 (centres unmarked) [isoproterenol]
EC50 [1]: 8 nM

Compound: COCCc1ccc(OCC(O)CNC(C)C)cc1 (centres unmarked) [metoprolol]
inhibition at 100 µM ([5]; CHO): 70%
